# Test system: CamASNase
# Assay: initial rates at varied L-asparagine, Lineweaver-Burk
# Type: biochemical, Chryseomicrobium amylolyticum
# Conditions: pH 7.4, 37 °C; L-asparagine 1 to 80 µM
structure (smiles),measurement,value
NC(=O)C[C@H](N)C(=O)O [L-asparagine],Km,6.36 µM

# Source: article PMC12287261 (Scientific Reports, 2025)
